# Measured values from paper PMC7375240, “Covalent Inhibitors Allosterically Block the Activation of Rho Family Proteins and Suppress Cancer Cell Invasion” (Advanced Science, 2020).
# How the values were obtained:
# Rac1 = biological target: T1, Rac1 (Homo sapiens, UniProt P63000); experiment: pull-down of Rac1 with its GEF; format: binding; settings: Rac1-GEF interaction (GEF probably murine Tiam1 […]-1406), pH […]
# T1 construct: full length, His6-tagged (pET28a), E. coli BL21(DE3)
# Cdc42 = biological target: T2, Cdc42 (Homo sapiens, UniProt P60953); experiment: pull-down of Cdc42 with its GEF; format: binding; settings: Cdc42-GEF interaction (GEF probably human intersectin1 […]-1571), pH […]
# T2 construct: full length, His6-tagged (pET28a), E. coli BL21(DE3)
# T2 sequence (P60953 whole entry): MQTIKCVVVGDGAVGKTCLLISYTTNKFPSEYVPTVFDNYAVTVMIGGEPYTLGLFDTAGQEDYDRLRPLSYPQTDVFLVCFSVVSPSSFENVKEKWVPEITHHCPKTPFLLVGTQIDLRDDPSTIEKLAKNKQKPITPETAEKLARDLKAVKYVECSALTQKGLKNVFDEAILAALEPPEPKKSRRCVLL
compound,measurement,setting,value
"C=CCOC(=O)C1=CS(=O)(=O)c2ccccc21 [DC-RC-063, DC-Rhoin]",pull-down of Rac1 with its GEF,Rac1,"selectively inhibited the interactions between Rho family proteins (RhoA, Cdc42, and Rac1)"
same,pull-down of Cdc42 with its GEF,Cdc42,"selectively inhibited the interactions between Rho family proteins (RhoA, Cdc42, and Rac1)"
